Our source for the half-life values is PubChem BioAssay AID1508591.

Molecules are shown by their SMILES.

The conditions of the data set: rat; liver microsomes; pH 7.4; 15.0 min; 1.0 µM.
The half-life is the time needed for the level to fall by half in the phase considered. Low readings indicate rapid decline, high ones slow decline. `CN(C)c1cccc(-c2cc(N3CCC(C(N)=O)CC3)ncn2)c1`: the half-life is 21.1 min.

In turn, `COc1ccc(Nc2ncnc3c2cnn3-c2ccc(C)cc2)cc1Cl` returned a half-life greater than 30 min.

Take `Cn1nnnc1SCCCNCc1cccc(OCc2ccccc2Cl)c1`: the half-life was found to be 1.72 min.

With `CC(=O)Nc1cccc(-c2nc(-c3c(C)noc3C)cc3c2cc(-c2ccccc2)n3C)c1`, the half-life is greater than 30 min.

Take `O=C(NCCCN1CCCC1=O)c1ccc(-c2ncc3cnc(-c4ccccc4)cn23)cc1`: the half-life was greater than 30 min.

Compound `COc1ccc(OC)c(-c2nnc3n2N=C(c2c(OC)cccc2OC)CS3)c1` gave a half-life of 1.4 min.

`CSc1ccccc1-c1ccc(Nc2nc(-c3ccncc3)nc3ccccc23)cc1F` came in with a half-life of 5.1 min.

For the compound `CC(C)(C)C1CCc2nc(NC(=O)c3cccc(Cl)c3)sc2C1` (centres undefined), the half-life came out at 20 min.

The compound `COc1cc(-c2ccnc3c2c(C)nn3-c2cccc(C(F)(F)F)c2)ccc1O` gave a half-life greater than 30 min.

`CNS(=O)(=O)c1cc(-c2nn3c(C)nnc3c3ccccc23)ccc1C` displayed a half-life greater than 30 min.

As for `Cc1cccc2c(C(=O)O)cc(-c3cccs3)nc12`, the half-life amounted to 8.96 min.

As to `O=C(c1ccc2ccccc2c1)N1CCN(c2ccc(O)cc2)CC1`, the half-life was greater than 30 min.

`C[C@@H](c1ccc2nccn2c1)n1nnc2ncc(-c3cnn(C)c3)nc21` returned a half-life greater than 30 min.

`O=[S+]([O-])(Nc1ccc(N2CCNCC2)cc1)c1ccc(NCc2ccc(Cl)cc2O)cc1` showed a half-life greater than 30 min.

As for `O=C(CCCCn1c(=O)[nH]c2ccsc2c1=O)N1CCN(c2cccc(Cl)c2)CC1`, the half-life amounted to 8.06 min.

The compound `O=C(NC1CCCc2c1cnn2-c1ccc(F)cc1F)c1ccc(C2(C(F)(F)F)N=N2)cc1` (centres undefined) displayed a half-life greater than 30 min.

The compound `NC(=O)C1CCN(c2nc(-c3cccs3)cs2)CC1` yielded a half-life of 3.98 min.

Compound `O=C(Cc1ccc(Cl)c(Cl)c1)Nc1ccc(S(=O)(=O)Nc2cccc(O)c2)cc1` returned a half-life of 10 min.

Take `O=C(CCc1ccccc1)Nc1ccc(S(=O)(=O)Nc2nccs2)cc1`: the half-life was greater than 30 min.

Compound `CN(C(=O)COC(=O)c1csc(NCc2ccccc2)n1)c1ccccc1` registered a half-life of 1.4 min.

On to `COc1cc(-c2nc(Nc3ccc(F)c(F)c3)c3ccccc3n2)c(F)cn1`, for which the half-life was greater than 30 min.

The compound `NC(=O)Nc1cc(-c2ccc(CN3CCOCC3)cc2)sc1C(N)=O` returned a half-life greater than 30 min.

`COc1ccc(-c2cc(-c3cccc4[nH]ncc34)cn3cncc23)cn1`: the half-life stood at 9.28 min.

As for `CC(=O)Nc1ccc(NC(=O)C(NS(=O)(=O)c2ccc(Br)s2)c2ccccc2)cc1` (centres undefined), the half-life is 8.13 min.

`CCCc1ccc(C(=O)NC(=O)c2ccccc2O)cc1` registered a half-life of 2.37 min.

Take `Cc1ccc(-c2csc(NC(=O)c3ccncc3NS(=O)(=O)c3ccc(C)cc3)n2)cc1`: the half-life stood at 7.3 min.

Take `CCC(CC)c1cc([C@H]2CN3CC[C@H]2C[C@@H]3CNC(=O)COc2ccccc2)nc(-c2ccncc2)n1`: the half-life stood at 2.38 min.

For the compound `CCOc1ccc(CCNC(=O)c2cc3ccncc3n2Cc2cccc(C)c2)cc1OCC`, the half-life is 7.1 min.

Take `Cc1cc(C)c(C(=O)Nc2cccc([S+](=O)([O-])N3CCCCC3)c2)[nH]1`: the half-life was 3 min.

`COc1ccc(-c2ccc3c(N4CCOC[C@@H]4C)nc(N4CCOC[C@@H]4C)nc3n2)cc1CO`: the half-life was greater than 30 min.

On to `Cc1ccc(CCNC(=O)C2CCCN(C(=O)c3cc4sccc4n3C)C2)cc1` (centres undefined), for which the half-life is 1.7 min.

Compound `COc1nccc(-c2nc(Nc3ccc(F)c(F)c3)c3ccccc3n2)c1OC` had a half-life of 26 min.

Compound `COc1cc(/C=C(\C#N)c2nc3ccccc3[nH]2)ccc1OCc1ccc(F)cc1` registered a half-life of 7.99 min.

`C[C@]1(CO)CN(c2cc(C(=O)Nc3ccc4c(c3)-c3c(c(C(N)=O)nn3-c3ccc(F)cc3)CC4)c(Cl)cn2)C[C@@]1(C)CO` had a half-life of 23.2 min.

Take `CCOc1ccc(CCNC(=O)c2cc3cnccc3n2Cc2cccc(C)c2)cc1OCC`: the half-life worked out at 6.9 min.

As for `Cn1nnnc1Sc1ncnc2scc(-c3ccccc3F)c12`, the half-life is 5.28 min.

Consider `CCCC1=Nc2cc(C(=O)NC3CCCCC3)ccc2Sc2ccc(C)cc21`, for which the half-life came out at 1.48 min.

Compound `Cc1ccc(S(=O)(=O)Nc2ccccc2C(=O)Nc2nccs2)cc1` yielded a half-life of 1.6 min.

`N#Cc1ccc(N2N=C3c4ccc(C(=O)O)cc4CC[C@@H]3[C@@H]2C2CCCC2)cc1Cl` displayed a half-life greater than 30 min.

Compound `Cc1ccc(S(=O)(=O)Nc2cccc(C(=O)Nc3nc(-c4ccc(Cl)cc4)cs3)c2)cc1` gave a half-life of 23 min.

`CN1CCN(c2ccc(Nc3c4ccccc4nc4ccccc34)cc2)CC1` had a half-life of 1.72 min.

With `Cc1nc([C@](C)(O)CO)sc1-c1cnc(N)c(O[C@H](C)c2cc(F)ccc2-n2nccn2)c1`, the half-life was found to be 22.6 min.

In the case of `COc1ccc(C)cc1-n1nnnc1Sc1ncnc2scc(-c3ccc(Br)cc3)c12`, the half-life was determined as 2.1 min.

With `CN(C)c1cccc(-c2nnc(N3CCC(C(N)=O)CC3)s2)c1`, the half-life turned out to be 15.7 min.

Turning to `O=C(Cc1ccc(-c2csc(Nc3ccc(F)cc3)n2)s1)N1CCOCC1`, the half-life was greater than 30 min.

In the case of `NC(=O)C1CCN(c2nc(-c3cccc(Br)c3)cs2)CC1`, the half-life is 1.77 min.

For the compound `COc1ccccc1Nc1cnc2ccc(-c3ccc(OC)c(OC)c3)nn12`, the half-life stood at 6.22 min.

`COc1ccc(O)c2c(=O)c3c(OC)cc4c(c3oc12)C1C=COC1O4` (centres undefined) showed a half-life of 2.79 min.

The compound `Cc1cc(-c2nnc3n2CCCCC3)c(C)n1-c1cccnc1` yielded a half-life of 15 min.

Consider `O=C(Nc1ccc(F)cc1F)c1cc(-c2ccc[nH]2)n[nH]1`, for which the half-life worked out at 16.7 min.

As for `O=C(Cc1ccc(Cl)c(Cl)c1)Nc1ccc([S+](=O)([O-])Nc2ccccn2)cc1`, the half-life was determined as 8.3 min.

As to `CC(=O)c1c(C)n(-c2ccccc2)c2ccc(O)cc12`, the half-life was found to be 17 min.

`Cc1cccc(N(C)c2nc3ccccc3c3nnc(C)n23)c1` returned a half-life of 1.57 min.

`Cc1cnc(-c2ccccc2C(C)C)nc1NCc1ccc(-n2ccnn2)cc1` returned a half-life of 10.3 min.

`Cc1cccc(-n2ncc3c2CCCC3NC(=O)c2c(F)ccc(F)c2F)c1C` (centres undefined) had a half-life of 0.96 min.

Compound `O=C(Nc1ccccc1-c1cn2c(CN3CCNCC3)csc2n1)c1cnc2ccccc2n1` came in with a half-life greater than 30 min.

Regarding `O=[N+]([O-])c1ccc(/C=N/n2c(CO)nc3ccccc32)s1`, the half-life stood at 21 min.

`CSc1nnc2c3ccccc3n(CCc3ccccc3)c2n1` returned a half-life of 1.69 min.

In turn, `CC(C)(O)C=CC(=O)[C@](C)(O)[C@H]1[C@H](O)C[C@]2(C)[C@@H]3CC=C4[C@@H](C=C(O)C(=O)C4(C)C)[C@]3(C)C(=O)C[C@@]12C` had a half-life greater than 30 min.

Regarding `CC[C@H](NC(=O)[C@H](C)NC)C(=O)N1C[C@@H](O)C[C@H]1Cc1c(-c2[nH]c3cc(F)ccc3c2C[C@H]2C[C@H](O)CN2C(=O)[C@H](CC)NC(=O)[C@H](C)NC)[nH]c2cc(F)ccc12`, the half-life was greater than 30 min.

Consider `O=S(=O)(c1ccc2ccccc2c1)N1CCN(c2nc(-c3cccs3)nc3ccccc23)CC1`, for which the half-life stood at 2.34 min.

`CC(C)c1ccccc1-c1nc2c(c(NCc3ccc(-c4cccnc4)cc3)n1)CNC2`: the half-life was determined as 6.21 min.

Compound `CCOc1ccc(CCNC(=O)c2cc3sccc3n2C)cc1OCC` registered a half-life of 1.6 min.

`CCN1CCCC1CNC(=O)c1cc(S(=O)(=O)CC)c(N)cc1OC` (centres undefined) registered a half-life greater than 30 min.
